The text below walks through data of ChEMBL document CHEMBL3046370, “Synthesis and biological evaluation of , -unsaturated ketone as potential antifungal agents” (2009).

Converted amounts (≈) assume the structure as drawn.

For assay [1], the system named is Candida albicans. In words: Antifungal activity against fluconazole-resistant Candida albicans NCIM 3446 after 48 hr by broth dilution method. The class given is functional. To be noted: NCIM 3446, 48 h.
For assay [2], the system named is Candida albicans. In words: Antifungal activity against fluconazole-sensitive Candida albicans ATCC 10231 after 48 hr by broth dilution method. To be noted: ATCC 10231, 48 h. Type of assay: functional.

On to `CSc1ccc(/C=C/C(=O)c2cccs2)cc1`, for which the MIC against Candida albicans [1] and in the assay on Candida albicans [2] was 5 µg/mL (≈ 19.2 µM) throughout.
As for `CSc1ccc(/C=C/C(=O)c2ccccc2)cc1`, the results for the MIC in the assay with Candida albicans [1] and in the assay with Candida albicans [2] were 40 µg/mL (≈ 157 µM) and 20 µg/mL (≈ 78.6 µM), respectively.
The corresponding values for `COc1ccc(/C=C/C(=O)c2ccc(Br)s2)cc1` are 100 µg/mL (≈ 309 µM) and 50 µg/mL (≈ 155 µM).
The corresponding values for `CSc1ccc(/C=C/C(=O)c2ccc(-c3ccccc3)cc2)cc1` are 250 µg/mL (≈ 757 µM) and 100 µg/mL (≈ 303 µM).
The corresponding values for `COc1ccc(C(=O)/C=C/c2ccc(SC)cc2)cc1` are 20 µg/mL (≈ 70.3 µM) and 10 µg/mL (≈ 35.2 µM).
Take `CSc1ccc(/C=C/C(=O)c2ccc(Cl)cc2)cc1`: the MIC was determined as 20 µg/mL (≈ 69.3 µM) in the assay on Candida albicans [1] and 10 µg/mL (≈ 34.6 µM) with Candida albicans [2].
The corresponding values for `COc1ccc(C(=O)/C=C/c2ccc(OC)c(OC)c2)cc1` are 10 µg/mL (≈ 33.5 µM) and 20 µg/mL (≈ 67 µM).
On to `CSc1ccc(/C=C/C(=O)c2ccc(Br)cc2)cc1`, for which the values for the minimum inhibitory concentration (MIC) against Candida albicans [1] and in the assay on Candida albicans [2] were 100 µg/mL (≈ 300 µM) and 40 µg/mL (≈ 120 µM), respectively.
In the case of `CSc1ccc(/C=C/C(=O)c2ccc(Br)s2)cc1`, the values for the MIC against Candida albicans [1] and in the assay with Candida albicans [2] were 50 µg/mL (≈ 147 µM) and 40 µg/mL (≈ 118 µM), respectively.
For `OC(Cn1cncn1)(Cn1cncn1)c1ccc(F)cc1F` [FLUCONAZOLE], the MIC in the assay on Candida albicans [1] is 100 µg/mL (≈ 327 µM); with Candida albicans [2], 20 µg/mL (≈ 65.3 µM).
Consider `COc1ccc(/C=C/C(=O)c2ccc(Br)s2)cc1OC`, for which the values for the MIC in the assay on Candida albicans [1] and with Candida albicans [2] were 100 µg/mL (≈ 283 µM) and 50 µg/mL (≈ 142 µM), respectively.
On to `CSc1ccc(/C=C/C(=O)c2ccc([N+](=O)[O-])cc2)cc1`, for which the MIC with Candida albicans [1] amounted to 100 µg/mL (≈ 334 µM); against Candida albicans [2], 50 µg/mL (≈ 167 µM).
In the same order, the values of `COc1ccc(/C=C/C(=O)c2cccs2)cc1OC` are 20 µg/mL (≈ 72.9 µM) and 10 µg/mL (≈ 36.5 µM).
As to `CSc1ccc(/C=C/C(=O)c2ccc(O)cc2)cc1`, the minimum inhibitory concentration (MIC) came to 40 µg/mL (≈ 148 µM) against Candida albicans [1] and 20 µg/mL (≈ 74 µM) against Candida albicans [2].
In the same order, the values of `O=C(/C=C/c1ccc(-c2ccccc2)cc1)c1cccs1` are 250 µg/mL (≈ 861 µM) and 100 µg/mL (≈ 344 µM).
Turning to `CSc1ccc(/C=C/C(=O)c2ccc(F)cc2)cc1`, the minimal inhibitory concentration (MIC) stood at 8 µg/mL (≈ 29.4 µM) against Candida albicans [1] and 5 µg/mL (≈ 18.4 µM) in the assay with Candida albicans [2].
With `COc1ccc(/C=C/C(=O)c2cccs2)cc1`, the MIC in the assay on Candida albicans [1] and against Candida albicans [2] was 20 µg/mL (≈ 81.9 µM) in each case.
Consider `CSc1ccc(/C=C/C(=O)c2ccc(Cl)cc2Cl)cc1`, for which the MIC was 200 µg/mL (≈ 619 µM) in the assay on Candida albicans [1] and 50 µg/mL (≈ 155 µM) in the assay on Candida albicans [2].
The corresponding values for `CSc1ccc(/C=C/C(=O)c2cccc(O)c2)cc1` are 40 µg/mL (≈ 148 µM) and 20 µg/mL (≈ 74 µM).
In the same order, the values of `CSc1ccc(/C=C/C(=O)c2ccccc2O)cc1` are 20 µg/mL (≈ 74 µM) and 20 µg/mL (≈ 74 µM).
In the case of `O=C(/C=C/c1ccc(-c2ccccc2)cc1)c1ccc(Br)s1`, the figures for the minimal inhibitory concentration (MIC) against Candida albicans [1] and in the assay with Candida albicans [2] were 250 µg/mL (≈ 677 µM) and 100 µg/mL (≈ 271 µM), respectively.
